Assay: Thiosulfate/Gluconate physical compatibility screening
Type: physicochemical
Details: heated to no more than 115° F, visual and olfactory
Excerpt: The final solution was stored at room temperature for 15 days and then examined to determine relative storage stability.

ferrous gluconate
Observation (1 g ferrous gluconate (Mole % 4%) added to 25 g sodium thiosulfate): Mild odor, dissolved when warmed
Observation (2 g ferrous gluconate (Mole % 7%) added to 25 g sodium thiosulfate): Mild odor, dissolved when warmed
Observation (3 g ferrous gluconate (Mole % 11%) added to 25 g sodium thiosulfate): Mod odor, dissolved when warmed
Observation (4.5 g ferrous gluconate (Mole % 16%) added to 25 g sodium thiosulfate): Mod odor, dissolved when warmed
Observation (5 g ferrous gluconate (Mole % 19%) added to 25 g sodium thiosulfate): Mod odor, dissolved when warmed
Observation (6 g ferrous gluconate (Mole % 22%) added to 25 g sodium thiosulfate): Mod odor, dissolved when warmed
Observation (7 g ferrous gluconate (Mole % 26%) added to 25 g sodium thiosulfate): Mod odor, dissolved when warmed
Observation (8 g ferrous gluconate (Mole % 30%) added to 25 g sodium thiosulfate): Mod odor, dissolved when warmed
Observation (9 g ferrous gluconate (Mole % 33%) added to 25 g sodium thiosulfate): Mod odor, dissolved when warmed
Observation (10 g ferrous gluconate (Mole % 37%) added to 25 g sodium thiosulfate): Mod odor, dissolved when warmed
Observation (14 g ferrous gluconate (Mole % 52%) added to 25 g sodium thiosulfate): Mod odor, dissolved when warmed
